Reference: PMC12064818, “A general assay platform to study protein pharmacology using ligand-dependent structural dynamics” (Nature Communications, 2025)

Assays:
[1] = molecular target: T1, NLuc (Oplophorus gracilirostris, UniProt Q9GV45, A31E/A60N/A81I/F95D/I117V/K70R/L54V/L99Q/M102K/N193R/P142E/Q151K/Q38R/Q45L/V71I/Y165I); format: biochemical; conditions: - ATP
T1 construct: His tag (inferred from IMAC purification); made in house; host or cells: E. coli
Method in brief: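 Luminescence was read 10 min after Nano-Glo reagent addition. Enzyme was 1 nM NLuc in PBS/0.05% IGEPAL buffer, with or without ATP.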

[2] = molecular target: FLuc-C-HiBiT (firefly luciferase) (Photinus pyralis, UniProt P08659, form not given/L550V); test: SDR assay, FLuc-C-HiBiT; conditions: SDR max. response, clade S
[3] = molecular target: FLuc-C-NLuc (firefly luciferase) (Photinus pyralis, UniProt P08659, form not given/L550V); test: SDR assay, FLuc-C-NLuc; conditions: - ATP
[4] = molecular target: P. pyralis FLuc (Photinus pyralis, UniProt P08659); test: FLuc enzymatic luminescence assay, P. pyralis FLuc; format: biochemical; conditions: FLuc enzymatic assay, Clade S follow-up; for IC50: read-out: IC50 or SDR50 (mM) FLuc E
Method in brief: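 Runs with and without 10 µM ATP: compounds were pre-incubated with FLuc (1–10 nM, PBS pH 7.4) at ambient temperature, light-protected, for 30–60 min. Luminescence was imaged 5 min after adding 10 µM D-luciferin (final). Inhibition was scaled between DMSO neutral and no-enzyme controls.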

FLuc-C-HiBiT (firefly luciferase), sequence (P08659 2-550 L550V, form open): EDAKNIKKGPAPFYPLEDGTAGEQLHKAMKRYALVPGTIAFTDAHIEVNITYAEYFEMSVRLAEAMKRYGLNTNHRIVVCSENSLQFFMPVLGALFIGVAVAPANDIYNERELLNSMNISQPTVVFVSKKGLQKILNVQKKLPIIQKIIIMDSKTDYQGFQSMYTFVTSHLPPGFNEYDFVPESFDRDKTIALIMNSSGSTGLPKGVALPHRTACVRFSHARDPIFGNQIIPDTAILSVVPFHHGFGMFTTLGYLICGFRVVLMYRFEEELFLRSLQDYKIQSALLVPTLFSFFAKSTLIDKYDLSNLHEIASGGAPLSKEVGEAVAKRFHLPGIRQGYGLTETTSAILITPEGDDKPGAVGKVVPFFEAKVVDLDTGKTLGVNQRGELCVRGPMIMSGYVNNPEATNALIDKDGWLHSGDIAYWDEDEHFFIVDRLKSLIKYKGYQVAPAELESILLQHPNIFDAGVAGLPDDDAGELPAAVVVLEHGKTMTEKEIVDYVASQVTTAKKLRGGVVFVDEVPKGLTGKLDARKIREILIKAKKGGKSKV
FLuc-C-NLuc (firefly luciferase), sequence (P08659 2-550 L550V, form open): as above
P. pyralis FLuc, sequence (P08659 whole entry): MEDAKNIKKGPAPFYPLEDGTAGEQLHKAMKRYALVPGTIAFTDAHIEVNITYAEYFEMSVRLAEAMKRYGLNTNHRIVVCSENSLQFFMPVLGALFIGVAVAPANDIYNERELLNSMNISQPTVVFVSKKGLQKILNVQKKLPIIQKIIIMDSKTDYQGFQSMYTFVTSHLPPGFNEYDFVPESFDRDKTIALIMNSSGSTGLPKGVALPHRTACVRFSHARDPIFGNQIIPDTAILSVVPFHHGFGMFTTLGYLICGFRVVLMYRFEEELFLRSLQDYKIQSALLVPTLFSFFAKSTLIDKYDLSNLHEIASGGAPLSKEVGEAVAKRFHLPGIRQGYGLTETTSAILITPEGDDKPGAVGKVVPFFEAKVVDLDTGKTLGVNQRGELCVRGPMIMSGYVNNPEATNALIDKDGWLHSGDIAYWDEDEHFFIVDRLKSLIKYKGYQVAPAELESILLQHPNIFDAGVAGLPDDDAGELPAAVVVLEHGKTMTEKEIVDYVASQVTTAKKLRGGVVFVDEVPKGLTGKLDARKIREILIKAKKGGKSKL
T1 sequence (Q9GV45 other isoform, or with tags, fused parts or gaps with the stated changes): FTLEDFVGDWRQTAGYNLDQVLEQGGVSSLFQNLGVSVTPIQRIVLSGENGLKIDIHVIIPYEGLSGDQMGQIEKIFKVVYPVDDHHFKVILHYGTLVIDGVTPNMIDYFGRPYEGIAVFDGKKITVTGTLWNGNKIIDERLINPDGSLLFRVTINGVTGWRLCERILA

Cc1ccc(C2Cn3cnc(C(=O)N4CCC(C(=O)NCCCc5ccccc5)CC4)c3CO2)cc1 (stereo not shown) [NCGC00449897-01]
Efficacy (%) NLuc (- ATP) [1]: 0.00%
% Activity (max response, + ATP) [2]: 151.61%
% Activity (max response, - ATP) [2]: -10.39%
Efficacy (%) FLuc-C-NLuc SDR (-ATP) [3]: 0.00%
Efficacy (%) FLuc E [4]: -69.05%
pIC50 or pSDR50 FLuc E [4]: 5.01
IC50 [4]: 0.00988 mM

Cc1ccc(C2Cn3cnc(C(=O)N4CCC(C(=O)NCc5ccccc5C)CC4)c3CO2)cc1 (stereo not shown) [NCGC00449898-01]
Efficacy (%) NLuc (- ATP) [1]: 0.00%
% Activity (max response, + ATP) [2]: 110.64%
% Activity (max response, - ATP) [2]: 0.00%
Efficacy (%) FLuc-C-NLuc SDR (-ATP) [3]: 0.00%
Efficacy (%) FLuc E [4]: -44.97%
pIC50 or pSDR50 FLuc E [4]: 4.96
IC50 [4]: 0.0111 mM

Cc1ccc(C2Cn3cnc(C(=O)N4CCC(C(=O)NCc5cccc(F)c5)CC4)c3CO2)cc1 (stereo not shown) [NCGC00449899-01]
Efficacy (%) NLuc (- ATP) [1]: 0.00%
% Activity (max response, + ATP) [2]: 60.19%
% Activity (max response, - ATP) [2]: 0.00%
Efficacy (%) FLuc-C-NLuc SDR (-ATP) [3]: 0.00%
Efficacy (%) FLuc E [4]: -43.90%
pIC50 or pSDR50 FLuc E [4]: 5.01
IC50 [4]: 0.00988 mM

Cc1ccc(C2Cn3cnc(C(=O)N4CCC(C(=O)NCc5cc(F)ccc5F)CC4)c3CO2)cc1 (stereo not shown) [NCGC00449900-01]
Efficacy (%) NLuc (- ATP) [1]: 0.00%
% Activity (max response, + ATP) [2]: 59.08%
% Activity (max response, - ATP) [2]: 0.00%
Efficacy (%) FLuc-C-NLuc SDR (-ATP) [3]: 0.00%
Efficacy (%) FLuc E [4]: -40.44%
pIC50 or pSDR50 FLuc E [4]: 4.96
IC50 [4]: 0.0111 mM

Cc1ccc(NC(=O)C2CCN(C(=O)c3ncn4c3COC(c3ccccc3)C4)CC2)cc1C (stereo not shown) [NCGC00449904-01]
Efficacy (%) NLuc (- ATP) [1]: 0.00%
% Activity (max response, + ATP) [2]: 306.70%
% Activity (max response, - ATP) [2]: 0.00%
Efficacy (%) FLuc-C-NLuc SDR (-ATP) [3]: 0.00%
Efficacy (%) FLuc E [4]: -72.15%
pIC50 or pSDR50 FLuc E [4]: 5.01
IC50 [4]: 0.00988 mM

CCc1cccc(NC(=O)C2CCN(C(=O)c3ncn4c3COC(c3ccccc3)C4)CC2)c1 (stereo not shown) [NCGC00449906-01]
Efficacy (%) NLuc (- ATP) [1]: 0.00%
% Activity (max response, + ATP) [2]: 357.78%
% Activity (max response, - ATP) [2]: 0.00%
Efficacy (%) FLuc-C-NLuc SDR (-ATP) [3]: 0.00%
Efficacy (%) FLuc E [4]: -98.95%
pIC50 or pSDR50 FLuc E [4]: 5.76
IC50 [4]: 0.00176 mM

CCc1ccc(NC(=O)C2CCN(C(=O)c3ncn4c3COC(c3ccccc3)C4)CC2)cc1 (stereo not shown) [NCGC00449907-01]
Efficacy (%) NLuc (- ATP) [1]: 0.00%
% Activity (max response, + ATP) [2]: 288.22%
% Activity (max response, - ATP) [2]: 0.00%
Efficacy (%) FLuc-C-NLuc SDR (-ATP) [3]: 0.00%
Efficacy (%) FLuc E [4]: -99.55%
pIC50 or pSDR50 FLuc E [4]: 5.16
IC50 [4]: 0.00699 mM

O=C(Nc1ccccc1)C1CCN(C(=O)c2ncn3c2COC(c2ccc(F)cc2)C3)CC1 (stereo not shown) [NCGC00449920-01]
Efficacy (%) NLuc (- ATP) [1]: 0.00%
% Activity (max response, + ATP) [2]: 29.50%
% Activity (max response, - ATP) [2]: 0.00%
Efficacy (%) FLuc-C-NLuc SDR (-ATP) [3]: 0.00%
Efficacy (%) FLuc E [4]: -13.92%

CCc1ccc(NC(=O)C2CCN(C(=O)c3ncn4c3COC(c3ccc(F)cc3)C4)CC2)cc1 (stereo not shown) [NCGC00449925-01]
Efficacy (%) NLuc (- ATP) [1]: 0.00%
% Activity (max response, + ATP) [2]: 47.34%
% Activity (max response, - ATP) [2]: 0.00%
Efficacy (%) FLuc-C-NLuc SDR (-ATP) [3]: 0.00%
Efficacy (%) FLuc E [4]: -32.74%
pIC50 or pSDR50 FLuc E [4]: 4.96
IC50 [4]: 0.0111 mM

CC(C)c1ccc(NC(=O)C2CCN(C(=O)c3ncn4c3COC(c3ccc(F)cc3)C4)CC2)cc1 (stereo not shown) [NCGC00449927-01]
Efficacy (%) NLuc (- ATP) [1]: 0.00%
% Activity (max response, + ATP) [2]: 35.93%
% Activity (max response, - ATP) [2]: 0.00%
Efficacy (%) FLuc-C-NLuc SDR (-ATP) [3]: 0.00%
Efficacy (%) FLuc E [4]: -23.88%
pIC50 or pSDR50 FLuc E [4]: 4.86
IC50 [4]: 0.0139 mM

Cc1ccc(NC(=O)C2CCN(C(=O)c3ncn4c3COC(c3ccc(F)cc3)C4)CC2)c(C)c1 (stereo not shown) [NCGC00449930-01]
Efficacy (%) NLuc (- ATP) [1]: 0.00%
% Activity (max response, + ATP) [2]: 67.53%
% Activity (max response, - ATP) [2]: 0.00%
Efficacy (%) FLuc-C-NLuc SDR (-ATP) [3]: 0.00%
Efficacy (%) FLuc E [4]: -45.61%
pIC50 or pSDR50 FLuc E [4]: 4.96
IC50 [4]: 0.0111 mM

O=C(Nc1ccc(F)cc1)C1CCN(C(=O)c2ncn3c2COC(c2ccc(F)cc2)C3)CC1 (stereo not shown) [NCGC00449939-01]
Efficacy (%) NLuc (- ATP) [1]: 0.00%
% Activity (max response, + ATP) [2]: 72.23%
% Activity (max response, - ATP) [2]: 0.00%
Efficacy (%) FLuc-C-NLuc SDR (-ATP) [3]: 0.00%
Efficacy (%) FLuc E [4]: -56.35%
pIC50 or pSDR50 FLuc E [4]: 5.01
IC50 [4]: 0.00988 mM
